This is an account of results in patent US10709907B2, “Taurine and aloe synergistic anti-irritant compositions and methods” (Colgate-Palmolive Company, priority 2016, dated 2020).

In data set [1] the test system is In vitro skin samples (MatTek EpiDerm). Briefly: Cytotoxicity Assay (MTT), cell viability of reconstructed human epidermis. The class given is cell-based. To be noted: for MTT (% cell viability): untreated Control = 100. The procedure:
(§1) Two in vitro reconstructed human epidermis models were employed to assess the relative irritation potential of selected test samples, the Cytotoxicity Assay (MTT) and the Irritation Assay (IL-1α Release Assay), described below.
Cytotoxicity Assay (MTT):
Cell damage was evaluated by assessing mitochondrial metabolic activity using 3-[4,5-dimethylthiazol-2-yl]-2,5-diphenyltetrazolium bromide (MTT-reduction assay) upon exposure to the test sample. MTT solution was prepared as 1.0 mg/ml in Phosphate Buffered Saline (PBS) just before usage. In vitro skin samples (MatTek EpiDerm) were treated topically with the test sample for 1 hour in a tissue culture incubator. Following the incubation, skin samples were washed with PBS and placed in 24 well tissue culture plates, and 500 μl of the MTT solutions were added to each well and incubated at 37° C. for 2 hours. The cell survivability was analyzed by measuring the ability of the cell's mitochondria to reduce the colorless MTT to a colored formazan crystalline end product. The reaction was terminated by the removal of the MTT solution from the wells. Addition of 1.0 mL of 0.04M HCl in isopropanol to each well was used to dissolve the intracellular MTT formazan crystals. The contents of each well were mixed gently in an orbital shaker at room temperature for 1 hour and the absorbency at 570 nm was measured by an ELISA plate reader (SpectraMax M5 Multi-Mode Microplate Readers, Molecular Devices, California).

Data set [2] relates to IL-1α release, 3D EpiDerm skin models (SIT-200 skin irritation model). Briefly: Irritation Assay (IL-1α Release Assay) by ELISA. The class given is cell-based, human. To be noted: untreated Control = 100.
Source text: as §1
Irritation Assay (IL-1α Release Assay):
To document the skin irritation of Antiperspirant Active Ingredients, we have conducted in vitro experiments using 3D EpiDerm skin models (SIT-200 skin irritation model, MatTek Corporation, Ashland, Mass. 01721). In vitro skin samples were treated topically with the test compound for 1 hour in tissue culture incubator. Following the incubation, skin samples were washed with PBS and placed in a culture medium and continue to incubate for 24 hours. Cell culture media was collected for IL-1α release assay. Higher the IL-1a release means higher the irritation potential. IL-1α release was analyzed by ELISA assay kit (Invitrogen, Grand Island, N.Y. 14072) and (R&D Systems, Minneapolis, Minn. 55413).

As to `O.O.O.O.O.O.[Al+3].[Cl-].[Cl-].[Cl-]` [12% AlCl3, Aluminum Chloride Hexaaqua], the “MTT (% cell viability)” value in data set [1] (Example 3, formulated samples) is given as 99%. In addition, the “IL-1α (percentage compared to untreated tissue)” value in data set [2] (Example 3, formulated samples) worked out at 234%.

`O.O.O.O.O.O.[Al+3].[Cl-].[Cl-].[Cl-]` [14% AlCl3, Aluminum Chloride Hexaaqua]: the “MTT (% cell viability)” value in data set [1] (Example 1, topical treatment 1 hour) stood at 78%; in data set [1] (Example 2, topical treatment 1 hour), 84%. Further, in data set [1] (Example 2), the “reduction of cell viability compared to untreated tissue (MTT)” value is listed as 15-20%. Besides, in data set [2] (Example 1, topical treatment 1 hour, then 24 hours in culture medium), the “IL-1α (percentage of the test value for the Control)” value came to 345%. For the same compound, the “IL-1α (percentage compared to untreated tissue)” value in data set [2] (Example 2, topical treatment 1 hour, then 24 hours in culture medium) is listed as 594%.
